Legend:
[1] = molecular target: T1, PDE4B: catalytic domain of human PDE4B from S152-S528 (Homo sapiens, UniProt Q07343); assay: PDE4 IC50 determination by Scintillation Proximity Assay (SPA), PDE4B catalytic domain; assay type: biochemical; settings: [3H]cAMP SPA, 30 min at 30° C.
T1 construct: The catalytic domain of human PDE4B from S152-S528; His6 (N, cleaved yes); thrombin cleavage site (N, cleaved yes); made in house; host or cells: E. coli BL21 (DE3) RIL
Outline: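 Human PDE4B catalytic domain (80 ng/ml) hydrolysed [3H]cAMP in 50 mM Tris pH 7.5, 8.3 mM MgCl, 1.7 mM EGTA, 0.01% BSA for 30 min at 30 °C. Reaction was stopped with yttrium silicate SPA beads in 18 mM ZnSO4, and bound [3H]AMP was counted by scintillation. IC50 came from non-linear regression.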

[2] = molecular target: T2, PDE4D5: full-length human PDE4D5 isozyme (Homo sapiens, UniProt Q08499); assay: PDE4 IC50 determination by Scintillation Proximity Assay (SPA), full-length PDE4D5; assay type: biochemical; settings: cell lysate, [3H]cAMP SPA
T2 construct: made in house; host or cells: baculovirus infected insect cells (pFastBacHT)
Outline: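 Unpurified enzyme from cell lysates (PDE4B2 2.5 μl, PDE4D5 0.083 μl of 50% glycerol stock/ml) hydrolysing [3H]cAMP in 50 mM Tris pH 7.5, 8.3 mM MgCl, 1.7 mM EGTA, 0.01% BSA, 30 min at 30 °C. Stopped with yttrium silicate SPA beads in 18 mM ZnSO4; bead-bound [3H]AMP counted. IC50 by non-linear regression.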

[3] = test system: TNFα levels in serum of LPS-challenged rats; assay: Rat inhibition studies: serum TNFα after iv LPS challenge; assay type: in vivo; settings: 5 mg/kg po, LPS 0.1 mg/kg iv 2 h after dosing, percent decrease in serum TNFα versus vehicle, read-out: % inhibition r TNFα
Description: All studies were done with male rats CD (SD) IGS BR (Crl) (Charles River, France), which were grouped in to 5 animal groups.
At the end of the acclimatization period, the non-fasted rats were weighed, individually identified on the tail with a permanent marker and administered by oral (po) or interperitoneal (ip) route with either vehicle, reference or test compound in a volume of 10 mL/kg adapted to the body weight. The animals were gathered in groups of 5 animals in a polystyrene labeled cage with sawdust covered floors. 2-hours after vehicle, reference or test substance administration, rats received an intravenous (iv) injection of 0.1 mg/kg LPS in a volume of 1 mL/kg of body weight. 2 h after LPS challenge (or as indicated in Tables 3B and 4B), blood samples were collected into tubes without anticoagulant by retro-orbital puncture under gas (isoflurane) anesthesia. Samples were allowed to clot at room temperature for 5 to 10 min then put on ice until there were prepared by centrifugation (6000×g for 3 min at 4° C.) and stored at −20° C. until use. TNFα levels were measured in serum samples in duplicate by ELISA technique according to the manufacturer's procedure (Rat TNFα kit Quantikine M (RTA00, R&D System, France)). Data are reported as percent decrease in observed TNFα levels versus TNFα levels observed for vehicle dosed animal groups.

T2 sequence (Q08499 with tags, fused parts or gaps isoform Q08499-6): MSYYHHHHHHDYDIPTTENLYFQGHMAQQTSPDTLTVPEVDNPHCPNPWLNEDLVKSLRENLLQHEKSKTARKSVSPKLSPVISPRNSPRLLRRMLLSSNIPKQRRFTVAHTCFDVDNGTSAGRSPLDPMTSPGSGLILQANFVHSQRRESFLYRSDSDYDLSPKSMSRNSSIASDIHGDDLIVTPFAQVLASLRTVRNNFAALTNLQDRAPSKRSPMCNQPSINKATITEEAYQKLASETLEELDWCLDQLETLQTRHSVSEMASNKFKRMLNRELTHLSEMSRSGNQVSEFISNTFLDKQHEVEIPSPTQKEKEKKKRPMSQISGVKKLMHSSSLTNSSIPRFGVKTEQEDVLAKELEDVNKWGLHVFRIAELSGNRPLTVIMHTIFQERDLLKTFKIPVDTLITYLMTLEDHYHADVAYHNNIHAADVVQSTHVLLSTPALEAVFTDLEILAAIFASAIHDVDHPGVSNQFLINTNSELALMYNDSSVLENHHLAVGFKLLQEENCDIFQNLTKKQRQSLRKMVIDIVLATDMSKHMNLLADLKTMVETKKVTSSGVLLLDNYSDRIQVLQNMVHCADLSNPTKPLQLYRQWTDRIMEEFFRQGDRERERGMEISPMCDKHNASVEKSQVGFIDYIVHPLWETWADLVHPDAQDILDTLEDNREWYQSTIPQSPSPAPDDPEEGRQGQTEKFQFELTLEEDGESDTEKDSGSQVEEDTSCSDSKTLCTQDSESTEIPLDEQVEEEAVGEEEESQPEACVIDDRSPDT
T1 sequence (Q07343 324-700): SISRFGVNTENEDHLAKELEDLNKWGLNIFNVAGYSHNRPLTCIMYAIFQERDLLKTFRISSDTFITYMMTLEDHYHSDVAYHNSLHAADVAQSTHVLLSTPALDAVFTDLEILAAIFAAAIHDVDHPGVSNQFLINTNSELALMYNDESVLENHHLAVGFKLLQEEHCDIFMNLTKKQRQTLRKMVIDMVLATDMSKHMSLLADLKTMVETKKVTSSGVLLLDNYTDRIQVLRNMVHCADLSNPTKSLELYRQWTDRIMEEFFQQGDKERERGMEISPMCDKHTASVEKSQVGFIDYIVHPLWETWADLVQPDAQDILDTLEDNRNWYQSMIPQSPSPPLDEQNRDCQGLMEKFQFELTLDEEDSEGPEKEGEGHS

CCOc1ccc2ccccc2c1C(=O)n1cc(-c2ccc(OC)c(OC)c2)c2cccnc21 [Compound 52, [3-(3,4-Dimethoxy-phenyl)-pyrrolo[2,3-b]pyridin-1-yl]-(2-ethoxy-naphthalen-1-yl)-methanone]
IC50 [1]: < 10 µM
IC50 [2]: < 10 µM
inhibition in vivo at 5 mg/kg [3]: ≥ 20%

CCOc1ccccc1C(=O)n1cc(-c2ccc(OC)c(OC)c2)c2cccnc21 [Compound 61, [3-(3,4-Dimethoxy-phenyl)-pyrrolo[2,3-b]pyridin-1-yl]-(2-ethoxy-phenyl)-methanone-amide]
IC50 [1]: < 10 µM
IC50 [2]: < 10 µM
inhibition in vivo at 5 mg/kg [3]: ≥ 20%

— patent publication US7605168B2 (Plexxikon, Inc., priority 2004, dated 2009)
